In ChEMBL document CHEMBL1201862, “PubChem BioAssay data set” (2004):
Active and inactive are the calls of the source.

How the values were obtained:
fMet-Leu-Phe receptor = target: T1, fMet-Leu-Phe receptor (Homo sapiens, UniProt P21462); test: formyl peptide receptor binders – dose response (AID 519); assay type: functional
T1 sequence (P21462 whole entry): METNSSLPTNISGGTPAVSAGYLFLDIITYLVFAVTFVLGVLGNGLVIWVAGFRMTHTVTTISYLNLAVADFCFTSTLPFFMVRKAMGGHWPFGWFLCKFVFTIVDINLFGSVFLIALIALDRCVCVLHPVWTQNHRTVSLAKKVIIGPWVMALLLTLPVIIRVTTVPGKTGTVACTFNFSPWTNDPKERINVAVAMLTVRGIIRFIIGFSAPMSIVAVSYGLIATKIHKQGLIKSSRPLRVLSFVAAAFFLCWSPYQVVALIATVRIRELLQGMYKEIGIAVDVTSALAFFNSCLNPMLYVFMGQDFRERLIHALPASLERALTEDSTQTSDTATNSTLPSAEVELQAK

[1] = target: T2, Short transient receptor potential channel 4 (Mus musculus, UniProt Q9QUQ5); test: block of DAMGO-driven TRPC4 calcium entry – cell-based, HEK293 TRPC4/mu-opioid, Fluo-4 calcium, dose response (AID 434942); assay type: functional;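 also: potency of inhibitors blocking the TRPC4 calcium response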
T2 sequence (Q9QUQ5 whole entry): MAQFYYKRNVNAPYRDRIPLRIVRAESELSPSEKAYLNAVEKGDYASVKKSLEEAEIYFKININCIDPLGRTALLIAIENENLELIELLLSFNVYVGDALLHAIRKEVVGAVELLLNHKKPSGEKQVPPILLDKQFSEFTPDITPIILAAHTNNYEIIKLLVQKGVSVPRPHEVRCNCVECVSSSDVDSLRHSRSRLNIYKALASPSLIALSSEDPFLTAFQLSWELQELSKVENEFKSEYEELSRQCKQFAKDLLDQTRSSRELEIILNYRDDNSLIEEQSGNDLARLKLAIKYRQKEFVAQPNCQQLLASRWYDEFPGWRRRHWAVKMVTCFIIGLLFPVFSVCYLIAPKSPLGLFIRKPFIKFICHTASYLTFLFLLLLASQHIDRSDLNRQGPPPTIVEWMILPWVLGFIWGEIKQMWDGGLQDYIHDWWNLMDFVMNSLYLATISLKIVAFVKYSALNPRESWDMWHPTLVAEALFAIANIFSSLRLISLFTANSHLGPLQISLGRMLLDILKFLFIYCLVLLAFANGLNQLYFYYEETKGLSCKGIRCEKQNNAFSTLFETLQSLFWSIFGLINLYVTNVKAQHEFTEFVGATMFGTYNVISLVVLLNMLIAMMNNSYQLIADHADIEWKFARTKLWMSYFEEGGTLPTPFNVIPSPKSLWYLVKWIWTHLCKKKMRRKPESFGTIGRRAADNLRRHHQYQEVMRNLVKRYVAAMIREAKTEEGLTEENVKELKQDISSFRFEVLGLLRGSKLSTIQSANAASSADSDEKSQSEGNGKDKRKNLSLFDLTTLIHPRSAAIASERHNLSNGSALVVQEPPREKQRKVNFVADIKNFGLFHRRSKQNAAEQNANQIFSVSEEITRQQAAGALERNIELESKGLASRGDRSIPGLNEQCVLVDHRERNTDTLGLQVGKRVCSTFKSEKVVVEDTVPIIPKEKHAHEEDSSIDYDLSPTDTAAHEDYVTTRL

Cytochrome P450 3A4 [2] = target: T3, Cytochrome P450 3A4 (Homo sapiens, UniProt P08684)
Streptokinase A = target: T4, Streptokinase A (Streptococcus pyogenes serotype M1, UniProt P10520); test: viability-normalized secreted streptokinase activity reduction – plasminogen activation absorbance, OD405, dose response (AID 1914); assay type: functional, Streptococcus pyogenes M1 GAS;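 also: secreted streptokinase activity via plasminogen activation per viability signal from cell pellet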
T4 sequence (P10520 whole entry): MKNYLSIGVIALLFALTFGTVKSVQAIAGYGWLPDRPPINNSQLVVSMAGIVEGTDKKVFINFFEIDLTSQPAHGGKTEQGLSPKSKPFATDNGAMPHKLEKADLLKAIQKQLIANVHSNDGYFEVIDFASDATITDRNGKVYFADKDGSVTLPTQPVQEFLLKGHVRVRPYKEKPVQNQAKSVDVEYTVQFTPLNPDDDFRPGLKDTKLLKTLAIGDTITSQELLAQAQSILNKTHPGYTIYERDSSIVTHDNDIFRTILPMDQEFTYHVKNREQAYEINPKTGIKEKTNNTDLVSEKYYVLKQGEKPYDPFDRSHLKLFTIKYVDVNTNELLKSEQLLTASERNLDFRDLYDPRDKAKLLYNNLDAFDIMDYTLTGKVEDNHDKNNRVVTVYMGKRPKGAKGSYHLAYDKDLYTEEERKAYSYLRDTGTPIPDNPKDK

[3] = viability loss in HEK293 cells – cell-based, plate reader, cherry-picked samples, cytotoxicity control, dose response (AID 743446); assay type: functional
cells = assay type: functional
[4] = THP-1 cell cytotoxicity, dose response, cytotoxicity control for non-replicating M. tuberculosis project (AID 489025); assay type: functional
[5] = blockers of bursicon-stimulated LGR2 cAMP reporter – cell-based, HEK293, CRE-luciferase reporter, cherry pick, set 2, dose response (AID 743343); assay type: functional;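 also: transfected cells were stimulated with diluted bursicon conditioned medium after compound addition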
[6] = toxicity toward HepG2 liver cells – cell-based, plate reader, cherry-pick, antagonist series, cytotoxicity control, dose response (AID 743416); assay type: functional
[7] = blockade of melanocortin 4 receptor signaling – cell-based, plate reader, cherry pick, counter-screen for LGR2 antagonist project, dose response (AID 743444); assay type: functional;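 also: transfected HEK 293 cells stimulated with alpha-MSH peptide; potency of inhibitors of the alpha-MSH evoked signal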
[8] = A549 cell cytotoxicity, dose response, cytotoxicity control, plate reader, cherry-pick, antagonist series (AID 743412); assay type: functional, cell-based
Streptococcus = test: GAS UMAA2166 growth inhibition – luminescence, BacTiterGlo, counter-screen for streptokinase expression inhibitor project, dose response (AID 1915); assay type: functional, organism-based;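 also: potency for reduction of bacterial viability or growth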
[9] = tested on: Streptococcus sp. 'group A'; test: Streptococcus pyogenes SK(-)GAS viability under kanamycin – luminescence, BacTiterGlo, confirmation, counter-screen for streptokinase expression inhibitor project, dose response (AID 1900); assay type: functional, organism-based
[10] = A cytotoxicity screen of small molecule inhibitors of the PhoP region in Salmonella typhi identified in the primary screen. [Related pubchem assays: 1850, 1864, 1985 ]; assay type: functional
[11] = viability loss in THP-1 monocytes – THP-1 cells, cytotoxicity control for Vif-APOBEC3G degradation inhibitor project, dose response (AID 1117359); assay type: functional; settings: THP-1
Cytochrome P450 3A4 [12] = target: T3, Cytochrome P450 3A4; settings: Potency
Paired box protein Pax-8 = Paired box protein Pax-8 (Homo sapiens, UniProt Q06710); test: PAX8 transcriptional activity inhibition in RMG-I – RMG-I cells, luciferase, cherry-pick, dose response (AID 687027); assay type: functional, cell-based;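 also: luciferase reporter driven by Pax8 target thyroperoxidase promoter measured by SteadyGlo luminescence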
[13] = OVCAR8 cell viability loss – plate reader, dry powder samples, PAX8 project, dose response (AID 743197); assay type: functional, cell-based; settings: OVCAR-8
[14] = OVCAR-3 cell viability loss – plate reader, dry powder samples, PAX8 inhibitor project, dose response (AID 743044); assay type: functional, cell-based
[15] = target: DNA dC->dU-editing enzyme APOBEC-3A (Homo sapiens, UniProt P31941); test: A3A deaminase inhibition for selectivity – biochemical, dose response (AID 504722); assay type: functional
[16] = target: DNA dC->dU-editing enzyme APOBEC-3G (Homo sapiens, UniProt Q9HC16); test: Dose Response confirmation of small molecule APOBEC3G DNA Deaminase Inhibitors via a fluorescence-based single-stranded DNA deaminase assay. [Related pubchem assays (depositor defined):AID493012, AID493028]; assay type: functional
DNA dC->dU-editing enzyme APOBEC-3G, sequence (Q9HC16 whole entry): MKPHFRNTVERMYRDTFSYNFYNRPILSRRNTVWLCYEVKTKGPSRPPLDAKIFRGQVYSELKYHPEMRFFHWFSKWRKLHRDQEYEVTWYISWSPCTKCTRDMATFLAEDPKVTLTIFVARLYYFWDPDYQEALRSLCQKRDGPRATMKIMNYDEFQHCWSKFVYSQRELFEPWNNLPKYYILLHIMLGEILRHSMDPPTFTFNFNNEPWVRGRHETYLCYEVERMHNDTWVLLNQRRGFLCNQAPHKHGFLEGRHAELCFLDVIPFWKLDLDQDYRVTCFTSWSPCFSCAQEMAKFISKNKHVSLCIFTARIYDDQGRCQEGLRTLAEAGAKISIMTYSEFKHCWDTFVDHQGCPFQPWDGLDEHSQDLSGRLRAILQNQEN

T3 sequence (P08684 whole entry): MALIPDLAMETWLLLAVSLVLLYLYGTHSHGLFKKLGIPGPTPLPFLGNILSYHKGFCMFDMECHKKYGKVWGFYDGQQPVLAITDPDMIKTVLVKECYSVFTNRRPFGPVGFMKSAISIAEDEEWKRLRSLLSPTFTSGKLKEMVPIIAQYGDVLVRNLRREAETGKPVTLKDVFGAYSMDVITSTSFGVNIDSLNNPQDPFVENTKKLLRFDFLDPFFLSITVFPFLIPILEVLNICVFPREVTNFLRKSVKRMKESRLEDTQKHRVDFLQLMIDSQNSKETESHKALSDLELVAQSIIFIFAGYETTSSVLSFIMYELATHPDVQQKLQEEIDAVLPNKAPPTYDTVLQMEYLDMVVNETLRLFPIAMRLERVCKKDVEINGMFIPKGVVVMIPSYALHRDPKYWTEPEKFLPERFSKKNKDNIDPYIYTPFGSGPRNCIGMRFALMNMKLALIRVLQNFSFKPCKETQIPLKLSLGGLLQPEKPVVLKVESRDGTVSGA
DNA dC->dU-editing enzyme APOBEC-3A, sequence (P31941 whole entry): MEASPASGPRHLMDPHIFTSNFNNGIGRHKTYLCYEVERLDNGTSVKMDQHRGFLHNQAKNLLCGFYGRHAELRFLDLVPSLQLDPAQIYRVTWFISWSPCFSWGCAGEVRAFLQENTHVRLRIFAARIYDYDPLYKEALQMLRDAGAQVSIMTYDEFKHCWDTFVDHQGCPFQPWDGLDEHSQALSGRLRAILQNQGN
Paired box protein Pax-8, sequence (Q06710 whole entry): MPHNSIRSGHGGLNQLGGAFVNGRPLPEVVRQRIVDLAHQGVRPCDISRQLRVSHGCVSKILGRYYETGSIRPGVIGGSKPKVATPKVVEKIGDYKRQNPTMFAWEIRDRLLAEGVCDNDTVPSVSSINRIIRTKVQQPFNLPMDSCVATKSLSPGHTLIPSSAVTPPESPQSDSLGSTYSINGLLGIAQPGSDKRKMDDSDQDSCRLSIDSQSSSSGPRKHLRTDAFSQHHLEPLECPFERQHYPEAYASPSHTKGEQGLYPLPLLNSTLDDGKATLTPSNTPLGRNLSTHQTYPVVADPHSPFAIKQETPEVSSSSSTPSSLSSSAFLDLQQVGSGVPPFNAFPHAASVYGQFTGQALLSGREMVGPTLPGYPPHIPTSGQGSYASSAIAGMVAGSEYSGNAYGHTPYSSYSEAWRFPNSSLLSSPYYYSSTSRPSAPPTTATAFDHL

SMILES: CCOc1cc(C2C(C(=O)c3ccc(C)o3)=C(O)C(=O)N2CCc2ccccc2)ccc1O (centres undefined)
- Ki (fMet-Leu-Phe receptor): 30.4 µM (inactive)

SMILES: CCCCNCC1C(Oc2ccc(Cl)cc2)C(=O)N1c1ccccc1C (centres undefined)
- EC50 [1]: 4.22 µM (active)

SMILES: Cc1nc2c(C#N)c(C)nn2c(O)c1Cc1ccccc1
- AC50 (Cytochrome P450 3A4 [2]): 25.1 µM (inconclusive)
- Ki (fMet-Leu-Phe receptor): 50 µM (inactive)

SMILES: Cc1ccc(C(=O)n2c(N)nc3ccccc32)cc1
- EC50 (Streptokinase A): > 150 µM (not active)
- AC50 [3]: > 52 µM (inactive)
- IC50 (cells): 6.64 µM (active)
- CC50 [4]: > 40 µM (active)
- AC50 [5]: 1.44 µM (active)
- AC50 [6]: > 52 µM (inactive)
- AC50 [7]: 1.43 µM (active)
- AC50 [8]: 24.9 µM (active)
- EC50 (Streptococcus): 115 µM (active)
- EC50 [9]: 13.2 µM (active)

SMILES: COc1ccc(CC(=O)N(Cc2cc3cc(OC)ccc3nc2O)C(C)C)cc1
- EC50 [10]: > 50 µM (active)

SMILES: O=C(CCn1cccc1)Nc1ccc(OC(F)(F)F)cc1
- EC50 [10]: > 50 µM (active)

SMILES: C1=Nc2ccccc2CN1c1ccccc1
- EC50 [10]: > 50 µM (active)

SMILES: COc1ccc(C2=NCC(=O)N(CC(=O)NCc3ccco3)c3sc4c(c32)CCCC4)cc1OC
- CC50 [11]: > 40 µM (active)

SMILES: O=C(O)CN(CC(=O)O)Cc1cc2c(-c3ccccc3C(=O)O)c3cc(CN(CC(=O)O)CC(=O)O)c(=O)cc-3oc2cc1O
- AC50 (Cytochrome P450 3A4 [12]): 20 µM (inconclusive)

SMILES: C[C@@H]1CCCCO[C@H](CN(C)Cc2ccc(Cl)c(Cl)c2)[C@H](C)CN([C@@H](C)CO)C(=O)c2cc(NC(=O)Nc3ccc(C(F)(F)F)cc3)ccc2O1
- AC50 (Paired box protein Pax-8): 5.49 µM (active)
- AC50 [13]: 51.1 µM (active)
- AC50 [14]: 20.1 µM (active)

SMILES: Cc1nnc(S)n1/N=C/c1c(O)ccc2ccccc12
- IC50 [15]: > 100 µM (inactive)
- IC50 [16]: 2.42 µM (active)
